Where two headings read alike, the source gives them in different places. Marks after values point to notes of the source that are not given here.

Data set [1] in a line: In vivo pharmacodynamic EEG study after oral administration. Also on record: species or system Sprague-Dawley rats. Particulars: rat, 10mg/kg orally. From the text: Study to assess in vivo pharmacodynamic activity of BPTU (S1) in the CNS of rats following oral administration.
Pre-surgery: The animals were allowed a minimum period of 7 days acclimatisation on arrival in the facility.
Surgery: Male Sprague-Dawley rats were anaesthetised with isoflurane (2-5% in Oxygen at 11/min) throughout the procedure. The scalp, neck and right flank were cleared of hair using clippers and cleaned using diluted Hibitane (50% (v/v) in water). A non-steroidal anti-inflammatory agent was administered (Carprofen 5mg/kg, s.c.) and the animals placed on a homeothermic blanket (37 °C) with the head fixed in a stereotaxic frame. Incisions were made in the scalp and neck, as well as in the right flank. Blunt dissection of the abdominal muscle was then made to gain access to the peritoneal cavity. A radio transmitter (HD-S02, Data Sciences International) was implanted with the body of the transmitter placed in the peritoneal cavity and secured to the muscle wall with non-absorbable sutures through the body of the transmitter. The wires of the transmitter were passed through the muscle wall and then sub-dermally using a trochar (16G needle) to the scalp to act as EEG/EMG electrodes. The scalp was cleared of connective tissue and two bore holes were made in the skull with a trepanning drill (fronto-parietal coordinates: Bregma +2mm anterior, midline +1.0mm lateral and Lambda 0mm, +1.5mm lateral). The positive EEG electrode was attached to the anterior bore hole and the negative EEG electrode to the posterior bore hole. Both electrodes were secured in place using a suitable adhesive agent (Cyanoacrylate gel, RS components). A second set of electrodes were sutured into the nuchal muscle to act as EMG electrodes. All incisions were closed using absorbable suture. The animals were allowed to recover in a warm environment and given 5ml of saline s.c. The animals were kept singly in the cage until next day, then pair housed for the duration of post-surgical recovery (min 7 days). During the recovery period, the rats received 5 days of standard post-operative care with no further experimental procedures until the pre-operative body weight was regained. The animals were maintained on a 12/12hr light dark cycle after the surgery.
Testing: On study days, the animals were placed in recording boxes individually and EEG/EMG as well as locomotor activity were recorded for 0.5 h before and 24 h after each dosing. […]
The subsequent EEG/EMG recordings were automatically scored (see Table below for sleep stage definitions) as wake, non-REM (NREM) sleep, or REM sleep in 10 second epochs using SleepSign (Kissei Comtec, Japan).
Power spectral analysis was performed on EEG data recorded over the first 3 h. […]

Data set [2] is described as follows: CNS penetration: intravenous cassette pharmacokinetic study, brain and plasma by LC-MS/MS. The following applies: mouse; for CNS penetration (in words): intravenous; for CNS penetrant (asterisk): in vivo; for CNS penetration: total brain to plasma ratio: t = 2 hr, 0.4mg/kg intravenous.
Procedure: To assess penetration of compounds into the mouse central nervous system, intravenous pharmacokinetic studies were undertaken in C57B16/J mice. […] Compounds were then combined into a single dosing solution and administered together via the intravenous route into 24 mice. Total compound dose administered to each mouse was 2mg/kg. Mice were culled at various times post dosing and brain and plasma collected for bioanalysis. In particular, mice were culled and plasma collected for bioanalysis at 8 time points out to 24 hours post dosing. Brains were also collected for bioanalysis at various time points to assess CNS penetration. 2 hour and 4 hour brain collection was carried out in all studies. Additional time points were collected in selected studies.
For bioanalysis, compounds were prepared in DMSO and aliquoted together to ensure a final concentration of 1mg/mL per compound in DMSO. Analytical standards were prepared from the initial 1mg/mL stock solution of compound, with a 12-point standard curve range from 0.5ng/mL to 2000ng/mL, with independent quality control tests from 1ng/mL to 1000ng/mL run to validate the standards. All standards and QC samples were matrix matched to eliminate possible suppression. Plasma samples were prepared with a 1:10 dilution in plasma. […] Dose solutions were diluted in a control matrix to a relative concentration that fell on the standard curve. Cold acetonitrile containing internal standard was added to all samples, standards, dose samples and QC samples; samples were then centrifuged for 30 minutes at 4000rpm. After centrifugation, supernatant was transferred to a new 96-well plate, diluted with an equal volume of water and mixed thoroughly before LC-MS analysis.
Supernatents were analysed by LC-MS/MS. From the analysis data a response ratio was obtained using the formula Response Ratio = Test Peak Area/Internal Standard Peak Area. From the standard curve, the test peak area was converted to concentration of test compound.
To establish CNS penetration, the ratio of the concentration of each compound in the plasma samples to the brain samples was assessed.
The target of data set [3] is T1, P2Y1 receptor (Homo sapiens, UniProt P47900).
T1 construct: expressed in transfected cells
T1 sequence (P47900 whole entry): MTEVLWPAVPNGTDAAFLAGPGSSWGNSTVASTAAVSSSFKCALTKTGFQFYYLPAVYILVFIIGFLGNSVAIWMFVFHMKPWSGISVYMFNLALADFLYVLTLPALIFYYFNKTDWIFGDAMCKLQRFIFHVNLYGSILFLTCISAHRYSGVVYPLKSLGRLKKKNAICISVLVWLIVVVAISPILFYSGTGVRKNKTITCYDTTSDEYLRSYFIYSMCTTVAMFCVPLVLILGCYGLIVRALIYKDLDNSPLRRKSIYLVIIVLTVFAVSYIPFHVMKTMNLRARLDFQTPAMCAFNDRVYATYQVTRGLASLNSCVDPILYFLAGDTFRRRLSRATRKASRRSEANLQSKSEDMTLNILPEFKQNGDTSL
The data set can be described thus: Cell based HTRF assay measuring IP1 accumulation; antagonism of the P2Y1 agonist MRS2365. The following applies: rounded to nearest whole number. How it is done:
IC50 values were determined using a cell based assay in stably transfected cells overexpressing the P2Y1 receptor. The assay system is a high throughput […] assay measuring accumulation of the intracellular messenger inositol monophosphate (IP1), generated intracellularly following activation of P2Y1.
P2Y1 overexpressing cells were maintained in T175 flasks. The day before the assay, these cells were split and 20µl cell suspension transferred to each well of white 384-well assay plates at a cell density of 0.5x10^6 cells/mL. Plates were pulse centrifuged, then incubated overnight at 37°C / 5% CO2 prior to assay.
On day of assay, medium was removed from cells and replaced with stimulation buffer. […] Positive control antagonist curves with standard compounds were included on each plate. Plates were incubated with antagonists for 1 hour prior to addition of 5nM of the agonist MRS2365, dispensed using a Bravo liquid handler. Following agonist addition, plates were incubated for 60 minutes prior to assay. Both incubations were carried out at 37°C / 5% CO2.
For the assay, IP1 accumulation was quantified using the IPOne kit according to manufacturer's instructions. In short, a standard curve was prepared for IP1 quantification, and cells lysed using kit lysis buffer. Assay reagents were added to the lysates, and incubated for 1 hour at room temperature without spinning or shaking. Plates were analysed on a BMG Pherastar plate reader, and IP1 signal generated in cells interpolated from the standard curve.
(In TR-FRET formats the signal depends on donor and acceptor labels being close together.)

As to `CC(C)(C)c1ccccc1Oc1ncccc1NC(=O)Nc1ccc(OC(F)(F)F)cc1` [BPTU, 1-(2-(2-(tert-butyl)phenoxy)pyridin-3-yl)-3-(4-(trifluoromethoxy)phenyl)urea], in data set [1] (during non-REM sleep), the “EEG power, delta band” value is reported as “Significant increases” and the “EEG power, theta band” value is listed as “Significant increases”. In addition, the “EEG power, gamma frequency band” value in data set [1] (during wake) is “Significant increases”. In addition, the “changes in the EEG power spectrum” value in data set [1] (first three hours post dosing) is on record as “significant changes”. Regarding `CC1(C)CN(c2ccccc2NC(=O)Nc2ccc(OC(F)(F)F)cc2)c2c(O)ccc(-c3ccc(Cl)cc3)c21` [RS1, 1-(2-(4-(4-chlorophenyl)-7-hydroxy-3,3-dimethylindolin-1-yl)phenyl)-3-(4-(trifluoromethoxy)phenyl)urea, reference compound], in data set [2], the “CNS penetration (in words)” value is reported as “no apparent CNS penetration”. Turning to `Cc1ccc(NC(=O)Nc2ccc(OC(F)(F)F)cc2)c(Oc2ccccc2C(C)(C)C)n1` [RS2, 1-(2-(2-(tert-butyl)phenoxy)-6-methylpyridin-3-yl)-3-(4-(trifluoromethoxy)phenyl)urea, reference compound], in data set [2], the “CNS penetration (in words)” value is listed as “no apparent CNS penetration”.

Take `CC(C)(C)c1ccccc1Oc1ncccc1NC(=O)Nc1ccc(OC(F)(F)F)cc1` [S1 (BPTU), 1-(2-(2-(tert-butyl)phenoxy)pyridin-3-yl)-3-(4-(trifluoromethoxy)phenyl)urea]: the “CNS penetrant (asterisk)” value in data set [2] (C57B16/J, 0.4 mg/kg) is on record as “S1 (BPTU)*”. What is called IC50 is the concentration that gives 50% inhibition. With `O=C(Nc1ccc(OC(F)(F)F)cc1)Nc1cccnc1Oc1ccccc1C1(C(F)(F)F)CC1` [S4, 1-(4-(trifluoromethoxy)phenyl)-3-(2-(2-(1-(trifluoromethyl)cyclopropyl)phenoxy)pyridin-3-yl)urea], in data set [2], the “CNS penetrant (asterisk)” value is recorded as “S4*”. Also, in data set [3] (read-out: IC50 IP1), the IC50 is 0.058 µM. The corresponding values for `CC(C)(C)c1ccccc1Oc1ncccc1NC(=O)Nc1ccc(C(F)(F)F)s1` [S8, 1-(2-(2-(tert-butyl)phenoxy)pyridin-3-yl)-3-(5-(trifluoromethyl)thiophen-2-yl)urea] are “S8*” and 0.121 µM. The corresponding values for `Cc1c(Oc2ncccc2NC(=O)Nc2ccc(OC(F)(F)F)cc2)cccc1N1CCCCC1` [S9] are “S9*” and 0.122 µM. The corresponding values for `CC(C)(C)c1ccccc1Oc1cccc(O)c1NC(=O)Nc1ccc(OC(F)(F)F)cc1` [S11, 1-(2-(2-(tert-butyl)phenoxy)-6-hydroxyphenyl)-3-(4-(trifluoromethoxy)phenyl)urea] are “S11*” and 0.15 µM.

Regarding `COc1ccc(Br)c(Oc2ncccc2NC(=O)Nc2ccc(OC(F)(F)F)cc2)c1` [S78], the IC50 in data set [3] (read-out: IC50 IP1) amounted to 7.16 µM. Same read-out and setting: the value for `CC(C)(C)c1ccccc1Oc1ncc(-c2ccccc2)cc1NC(=O)Nc1ccc(OC(F)(F)F)cc1` [S79] was 7.58 µM. The same measure, in the same setting: the value for `O=C(Nc1ccc(F)cc1F)Nc1cccnc1Oc1ccc(C(F)(F)F)cc1` [S80] was 7.94 µM; that for `Cc1ccccc1Oc1ncncc1NC(=O)Nc1ccc(OC(F)(F)F)cc1` [S81] was 8.12 µM. Still for that read-out and setting: the value for `Cn1cc(-c2cccc(Oc3ncccc3NC(=O)Nc3ccc(OC(F)(F)F)cc3)c2)cn1` [S82] was 8.18 µM; that for `O=C(Nc1ccc(OC(F)(F)F)cc1)Nc1cccnc1Oc1cccc(N2CCOCC2)c1` [S83] was 8.73 µM; that for `Cc1ccccc1Oc1ncc(NC2CCOCC2)cc1NC(=O)Nc1ccc(OC(F)(F)F)cc1` [S84] was 8.99 µM. Regarding `Cc1c(Oc2ncccc2NC(=O)Nc2ccc(OC(F)(F)F)cc2)cccc1-c1cccc(CN(C)C)c1` [S85], the IC50 in data set [3] (read-out: IC50 IP1) is 9.53 µM. Still for that read-out and setting: the value for `CCOC(=O)c1nnc(NC(=O)Nc2cccnc2Oc2ccccc2C(C)(C)C)s1` [S86] was 9.68 µM.

As to `CC1(C)CN(c2ccccc2NC(=O)Nc2ccc(OC(F)(F)F)cc2)c2c(O)ccc(-c3ccc(Cl)cc3)c21` [compound 1, reference compound], the “CNS penetration: total brain to plasma ratio” value in data set [2] was “BLLQ^d”. For the same compound, the half-maximal inhibitory concentration (IC50) in data set [3] (5nM MRS2365, read-out: IC50) is 0.033 µM.

`Cc1ccc(NC(=O)Nc2ccc(OC(F)(F)F)cc2)c(Oc2ccccc2C(C)(C)C)n1` [compound 3, 1-(2-(2-(tert-butyl)phenoxy)-6-methylpyridin-3-yl)-3-(4-(trifluoromethoxy)phenyl)urea, reference compound]: the “CNS penetration: total brain to plasma ratio” value in data set [2] is given as “BLLQ^d”. The IC50 in data set [3] (5nM MRS2365, read-out: IC50) came out at 0.036 µM.

Values taken from patent EP4094762A1, “TREATMENT OF NEUROLOGICAL INDICATIONS” (UCL Business Ltd, priority 2021, dated 2022).
